Laboratory results as given in patent EP4782447A1, “HETEROAROMATIC SULFONAMIDE STRUCTURAL COMPOUND, PHARMACEUTICAL COMPOSITION THEREOF, AND USE THEREOF” (Shanghai Yingli Pharmaceutical Co., Ltd, priority 2023, dated 2025).

Legend:
PARG (389-976) = target: T1, PARG (389-976) (Homo sapiens, UniProt Q86W56); assay: PARG enzyme inhibition assay (TR-FRET); format: biochemical; conditions: PARG 1.5 pM, Bio PARylated His-TEV-PARP1 substrate 12 nM
T1 construct: 5 µL of PARG (389-976) (manufactured by ChemPartner Co., Ltd.) was added into the 384-well plate; purchased ChemPartner Co., Ltd
Experimental: The in vitro PARG assay experiment was performed in a standard 384-well plate with a total reaction volume of 15 µL. In a buffer solution (50 mM Tris-HCl pH 7.5, 30 mM KCl, 1 mM EDTA, 3 mM DTT, 0.01% Tween-20, 0.025% BSA), 5 µL of PARG (389-976) (manufactured by ChemPartner Co., Ltd.) was added into the 384-well plate containing test compounds (with various concentrations) to obtain a final concentration of 1.5 pM, followed by incubation at room temperature for 30 minutes. Subsequently, 5 µL of Bio PARylated His-TEV-PARP1 (2-1014) substrate (manufactured by ChemPartner Co., Ltd.) was added into the above reaction mixture to obtain a final concentration of 12 nM, and the reaction was carried out at room temperature for 30 minutes after the addition was completed. Then, 5 µL of detection reagent was added. The detection reagent was prepared by buffer solution (50 mM Tris-HCl pH 7.5, 30 mM KCl, 1 mM EDTA, 3 mM DTT, 0.01% Tween-20, 0.025% BSA) consisting of 3 µM compound PDD00017273, 9 nM Mab anti-6HIS XL665 (Cisbio: 61HISXLA) and 0.9 nM streptavidin cryptate (Cisbio: 610SATLA). All three components were used at 3X working concentration, corresponding to final concentrations of 1 µM, 3 nM and 0.3 nM, respectively. After incubation at room temperature for 120 minutes in the dark place, the TR-FRET signals were measured at an excitation wavelength (Ex) of 340 nm, emission wavelengths (Em) of 665 nm and 615 nm. The ratio for each well was calculated as Em 665 / Em 615, and the compound inhibition rate was determined based on the obtained data. Table 1 Biochemical activity against PARG of the representative compounds of the rresent invention

HCC1395 = assay: Inhibitory effect on cell line proliferation detected by CTG assay; format: cell-based; conditions: Homo sapiens, 168 h; HCC1395 cells, 7 days, CellTiter-Glo
Experimental: The relevant assays were performed in 3 84-well plates or 96-well plates. The detailed procedure is as follows: The tested cell suspension was added into 384-well or 96-well plates (excluding peripheral wells) (384-well plate: 50 µL; 96-well plate: 100 µL), and the plates were incubated in a carbon dioxide incubator overnight; specifically, HCC1395 and HCC1428 cells were incubated in a 5% carbon dioxide incubator at 37°C overnight. The tested compounds (9-10 compound concentration gradients via 3-fold serial dilution) were added into the corresponding well by a HPD300 micro-dosing instrument. The cell plates were incubated in a carbon dioxide incubator for 7 days; specifically, for HCC1395 and HCC1428 cells, maintaining the incubation condition at 5% carbon dioxide and 37°C throughout this period. On the day of detection, firstly, the 384-well or 96-well plates were equilibrated at room temperature for 10-30 minutes, and then CellTiter-Glo reagent was added into each plate (384-well plate: 25 µL; 96-well plate: 100 µL), the plates were shaked for 10 minutes in the dark place, and incubated for another 10 minutes. The plates were placed into the Victor NIVO microplate reader for measurement. The efficacy inhibition rate curves were ploted using XLFit software and the IC50 values were calculated. Table 2 Anti-proliferative activity assay results of the representative compounds of the present disclosure against cell lines

[1] = Pharmacokinetic study of mice via intravenous injection and oral administration; format: in vivo; conditions: mouse, male CD-1 mice, plasma, a: mixed blood samples, b: mean of individual samples
Experimental: Plasma samples from male C57BL/6J mice or male CD-1 mice after intravenous injection and oral administration dosing with the tested compound, were collected from the orbital venous plexus at 8-9 time points (e.g., 5 min, 15 min, 30 min, 1 h, 2 h, 4 h, 7 h, 24 h or 5 min, 15 min, 30 min, 1 h, 2 h, 4 h, 6 h, 8 h, 24 h). The collected blood samples were transferred to microcentrifuge tubes containing EDTA-K2 anticoagulant, centrifuged at 4000 g and 4°C for 5 min. The resulting supernatant was pipetted and stored in a -75°C ± 15°C refrigerator . The compound concentrations in plasma samples at different time points were determined via LC-MS/MS, and the relevant pharmacokinetic parameters were calculated using WinNonlin software. Table 3-1 Pharmacokinetic determination results of the representative compounds of the present disclosure

[2] = tested on: HCC1428 cell-derived tumors; assay: In vivo pharmacodynamic study, subcutaneously implanted HCC1428 tumor model; conditions: 30 mg/kg PO, BID*28; BALB/c nude mice with subcutaneous HCC1428 tumors; start at average tumor volume 195 mm^3
Experimental: Estrogen was administered to BALB/c nude mice via injection twice weekly until the end of the experiment, subcutaneous inoculation with 1×10^7 HCC1428 cells (suspended in 100 µL of RPMI medium supplemented with Matrigel at a 1:1 volume ratio). Grouping and drug administration were initiated when the average tumor volume reached 150-200 mm^3. During the experiment, the body weight of the mice and tumor size were measured twice weekly, and the clinical symptoms of the animals were observed and recorded daily. The length (a) and width (b) of the tumors were measured using a vernier caliper, and the tumor volume was calculated according to the formula: TV = a×b^2/2. The tumor growth inhibition rate (TGI, %) was calculated based on the tumor volume using the formula: TGI (%) = [1 - (Ti - T0)/ (Vi - V0)] ×100%, wherein Ti represents the mean tumor volume of the treatment group on the i-th day after grouping, T0 represents the mean tumor volume of the treatment group at the time of grouping, Vi represents the mean tumor volume of the vehicle control group on the i-th day after grouping, and V0 represents the mean tumor volume of the vehicle control group at the time of grouping.

[3] = Intravenous administration (5mg/kg)
[4] = in vivo, Intravenous administration (5mg/kg)
[5] = in vivo, Oral administration (10mg/kg)

T1 sequence (Q86W56 389-976): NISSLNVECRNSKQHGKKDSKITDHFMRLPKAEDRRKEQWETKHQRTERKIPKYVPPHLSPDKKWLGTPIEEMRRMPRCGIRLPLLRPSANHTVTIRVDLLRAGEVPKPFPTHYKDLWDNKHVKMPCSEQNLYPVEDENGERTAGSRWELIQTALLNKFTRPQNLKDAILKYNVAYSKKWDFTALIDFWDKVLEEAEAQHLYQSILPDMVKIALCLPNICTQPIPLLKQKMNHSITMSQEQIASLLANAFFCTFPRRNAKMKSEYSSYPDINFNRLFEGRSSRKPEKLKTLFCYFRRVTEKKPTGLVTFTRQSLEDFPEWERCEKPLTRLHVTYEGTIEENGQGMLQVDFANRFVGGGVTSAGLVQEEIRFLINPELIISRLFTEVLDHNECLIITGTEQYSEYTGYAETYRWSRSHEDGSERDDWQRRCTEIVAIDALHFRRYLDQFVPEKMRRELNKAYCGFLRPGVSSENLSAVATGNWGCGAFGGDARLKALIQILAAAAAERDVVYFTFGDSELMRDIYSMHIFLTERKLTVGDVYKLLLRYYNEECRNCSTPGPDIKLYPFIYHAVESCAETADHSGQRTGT

| SMILES | IC50 (PARG (389-976)) | IC50 (HCC1395) | AUC(0-inf) [1, 3] | AUC(0-t) [1, 3] | clearance [1, 3] | AUC(0-inf) ([1]; Oral administration (10mg/kg)) | AUC(0-t) ([1]; Oral administration (10mg/kg)) | Cmax ([1]; Oral administration (10mg/kg)) | other results |
| --- | --- | --- | --- | --- | --- | --- | --- | --- | --- |
| CC(C)S(=O)(=O)N1CC=C(c2c(F)c(S(=O)(=O)NC3(C)CC3)cc3c(-c4nnc(C(F)F)s4)nn(C)c23)CC1 [Compound 7] | 0.21 nM | 0.074 µM | – | – | – | – | – | – | – |
| CC(C)C(=O)N1CC=C(c2c(F)c(S(=O)(=O)NC3(C)CC3)cc3c(-c4nnc(C(F)F)s4)nn(C)c23)CC1 [Compound 11] | 0.7 nM | – | – | – | – | – | – | – | – |
| CC1=C(c2c(F)c(S(=O)(=O)NC3(C)CC3)cc3c(-c4nnc(C(F)(F)F)s4)nn(C)c23)CCN(S(=O)(=O)C(C)C)C1 [Compound 5] | 0.43 nM | 0.043 µM | – | – | – | – | – | – | – |
| CC1=C(c2c(F)c(S(=O)(=O)NC3(C#N)CC3)cc3c(-c4nnc(C(F)(F)F)s4)nn(C)c23)CCN(S(=O)(=O)C(C)C)C1 [Compound 2] | 0.3 nM | 0.0368 µM | 50100 ng·h/mL | 49600 ng·h/mL | 1.68 mL/min/kg | 46900 ng·h/mL | 46700 ng·h/mL | 5370 ng/mL | – |
| CC1=C(c2c(F)c(S(=O)(=O)NC3(C#N)CC3)cc3c(-c4nnc(C(F)F)s4)nn(C)c23)CCN(S(=O)(=O)C(C)C)C1 [Compound 4] | 0.48 nM | 0.0445 µM | 20300 ng·h/mL | 18400 ng·h/mL | 4.17 mL/min/kg | 11300 ng·h/mL | 11000 ng·h/mL | 2010 ng/mL | – |
| CC(C)S(=O)(=O)N1CC=C(c2c(F)c(S(=O)(=O)NC3(C#N)CC3)cc3c(-c4nnc(C(F)(F)F)s4)nn(C)c23)CC1 [Compound 1] | 0.23 nM | 0.0949 µM | 44100 ng·h/mL | 44000 ng·h/mL | 1.89 mL/min/kg | 32800 ng·h/mL | 32800 ng·h/mL | 4320 ng/mL | Tumor Growth Inhibition Rate TGI (%) [2]: 106.8% |
| CC(C)S(=O)(=O)N1CC=C(c2c(F)c(S(=O)(=O)NC3(C#N)CC3)cc3c(-c4nnc(C(F)F)s4)nn(C)c23)CC1 [Compound 3] | 0.19 nM | 0.0992 µM | 33700 ng·h/mL | 33700 ng·h/mL | 2.47 mL/min/kg | 12000 ng·h/mL | 12000 ng·h/mL | 3300 ng/mL | – |
| CC1=C(c2c(F)c(S(=O)(=O)NC3(C)CC3)cc3c(-c4nnc(C(F)F)s4)nn(C)c23)CCN(S(=O)(=O)C(C)C)C1 [Compound 8] | 0.17 nM | 0.0322 µM | – | – | – | – | – | – | – |
| CC(C)S(=O)(=O)N1CC=C(c2c(F)c(S(=O)(=O)NC3(C)CC3)cc3c(-c4nnc(C(F)(F)F)s4)nn(C)c23)CC1 [Compound 6] | 0.35 nM | 0.0913 µM | – | – | – | – | – | – | – |
| CCC1=C(c2c(F)c(S(=O)(=O)NC3(C#N)CC3)cc3c(-c4nnc(C(F)(F)F)s4)nn(C)c23)CCN(S(=O)(=O)C(C)C)C1 [Compound 13] | – | 0.0313 µM | – | – | – | – | – | – | AUC(0-inf) [1, 4]: 35900 ng·h/mL; AUC(0-t) [1, 4]: 35900 ng·h/mL; clearance [1, 4]: 2.32 mL/min/kg; AUC(0-inf) [1, 5]: 25400 ng·h/mL; AUC(0-t) [1, 5]: 25400 ng·h/mL; Cmax [1, 5]: 2500 ng/mL |
| CC(C)C(=O)N1CC=C(c2c(F)c(S(=O)(=O)NC3(C#N)CC3)cc3c(-c4nnc(C(F)F)s4)nn(C)c23)CC1 [Compound 9] | 0.56 nM | 0.0446 µM | 8560 ng·h/mL | 8550 ng·h/mL | 9.8 mL/min/kg | 11500 ng·h/mL | 11500 ng·h/mL | 6160 ng/mL | – |
| CC(C)C(=O)N1CC=C(c2c(F)c(S(=O)(=O)NC3(C#N)CC3)cc3c(-c4nnc(C(F)(F)F)s4)nn(C)c23)CC1 [Compound 10] | 1.24 nM | – | – | – | – | – | – | – | – |
